Values after ≈ are worked out from the molar mass of the structure shown. Active and inactive are the calls of the source. The calls are words filed in the database; no cut-off is given here.
What was measured:
[1] = test system: Streptococcus agalactiae; assay: Bactericidal activity against Streptococcus agalactiae J48 assessed as inhibition of bacterial growth incubated for 72 hrs followed by culture growth in Todd-Hewitt agar medium and incubated for 24 hrs at 37 degC; format: functional, organism-based
[2] = test system: Bacillus cereus; assay: Bactericidal activity against Bacillus cereus assessed as inhibition of bacterial growth incubated for 72 hrs followed by culture growth in Todd-Hewitt agar medium and incubated for 24 hrs at 37 degC; format: functional, organism-based
[3] = test system: Pseudomonas aeruginosa; assay: Antibacterial activity against Pseudomonas aeruginosa ATCC 27853 assessed as inhibition of bacterial growth incubated for 72 hrs by CLSI based method; format: functional; conditions: ATCC 27853, 72 h
[4] = test system: Escherichia coli; assay: Bactericidal activity against Escherichia coli ATCC 25922 assessed as inhibition of bacterial growth incubated for 72 hrs followed by culture growth in Todd-Hewitt agar medium and incubated for 24 hrs at 37 degC; format: functional, organism-based
[5] = test system: Enterococcus faecalis; assay: Antibacterial activity against Enterococcus faecalis ATCC 29212 assessed as inhibition of bacterial growth incubated for 72 hrs by CLSI based method; format: functional; conditions: ATCC 29212, 72 h
[6] = test system: Escherichia coli; assay: Antibacterial activity against Escherichia coli ATCC 25922 assessed as inhibition of bacterial growth incubated for 72 hrs by CLSI based method; format: functional; conditions: ATCC 25922, 72 h
[7] = Critical aggregation concentration by at 37 degC isothermal titration calorimetry method; format: ADME
[8] = test system: Bacillus cereus; assay: Antibacterial activity against Bacillus cereus assessed as inhibition of bacterial growth incubated for 72 hrs by CLSI based method; format: functional
[9] = test system: Streptococcus agalactiae; assay: Antibacterial activity against Streptococcus agalactiae J48 assessed as inhibition of bacterial growth incubated for 72 hrs by CLSI based method; format: functional; conditions: J48, 72 h
[10] = test system: Staphylococcus aureus; assay: Bactericidal activity against Staphylococcus aureus subsp. aureus ATCC 29213 assessed as inhibition of bacterial growth incubated for 72 hrs followed by culture growth in Todd-Hewitt agar medium and incubated for 24 hrs at 37 degC; format: functional, organism-based
[11] = test system: Enterococcus faecalis; assay: Bactericidal activity against Enterococcus faecalis ATCC 29212 assessed as inhibition of bacterial growth incubated for 72 hrs followed by culture growth in Todd-Hewitt agar medium and incubated for 24 hrs at 37 degC; format: functional, organism-based
[12] = test system: Staphylococcus aureus; assay: Antibacterial activity against Staphylococcus aureus subsp. aureus ATCC 29213 assessed as inhibition of bacterial growth incubated for 72 hrs by CLSI based method; format: functional; conditions: ATCC 29213, 72 h
[13] = test system: Pseudomonas aeruginosa; assay: Bactericidal activity against Pseudomonas aeruginosa ATCC 27853 assessed as inhibition of bacterial growth incubated for 72 hrs followed by culture growth in Todd-Hewitt agar medium and incubated for 24 hrs at 37 degC; format: functional, organism-based

Row | SMILES | MIC [3] [µM] | MIC [5] [µM] | MIC [6] [µM] | CAC [7] [mM] | MIC [8] [µM] | MIC [9] [µM] | MIC [12] [µM] | Activity [1] | Activity [2] | Activity [4] | Activity [10] | Activity [11] | Activity [13]
1 | CCCCCCCC[N+](C)(C)Cc1cc(C[N+](C)(C)C)cc(C[N+](C)(C)CCCCCCCC)c1 | > 250 | > 250 | > 250 |  | > 250 | > 250 | > 250 | Active | Active | Active | Active | Active | Active
2 | CCCCCCCCCCCCCCCC[N+](C)(C)Cc1cc(C[n+]2ccccc2)cc(C[N+](C)(C)CCCCCCCCCCCCCCCC)c1.[Br-].[Br-].[Br-] | > 250 | > 250 | > 250 | 0.18 | > 250 | > 250 | > 250 | Active | Active | Active | Active | Active | Active
3 | CCCCCCCCCCCCCC[N+](C)(C)Cc1cc(C[N+](C)(C)C)cc(C[N+](C)(C)CCCCCCCCCCCCCC)c1.[Br-].[Br-].[Br-] | 125 | 4 | 8 | 0.61 | 4 | 2 | 4 | Active | Active | Active | Active | Active | Active
4 | CCCCCCCCCCCCCCCC[N+](C)(C)Cc1cc(C[N+](C)(C)C)cc(C[N+](C)(C)CCCCCCCCCCCCCCCC)c1.[Br-].[Br-].[Br-] | > 250 | 32 | 63 | 0.16 | 16 | 8 | 16 | Active | Active | Active | Active | Active | Active
5 | CCCCCCCCCC[N+](C)(C)Cc1cc(C[N+](C)(C)C)cc(C[N+](C)(C)CCCCCCCCCC)c1.[Br-].[Br-].[Br-] | > 250 | 8 | 125 | 12 | 8 | 4 | 16 | Active | Active | Active | Active | Active | Active
6 | CCCCCCCC[N+](C)(C)Cc1cc(C[n+]2ccccc2)cc(C[N+](C)(C)CCCCCCCC)c1 | > 250 | > 250 | > 250 |  | > 250 | > 250 | > 250 | Active | Active | Active | Active | Active | Active

Compounds with a lower MIC [3], results first:

Row | MIC [3] [µM] | MIC [5] [µM] | MIC [6] [µM] | CAC [7] [mM] | MIC [8] [µM] | MIC [9] [µM] | MIC [12] [µM] | SMILES | Activity [1] | Activity [2] | Activity [4] | Activity [10] | Activity [11] | Activity [13]
7 | 63 | 8 | 16 | 14 | 8 | 8 | 2 | CCCCCCCCCC[N+](C)(C)Cc1cc(C[n+]2ccccc2)cc(C[N+](C)(C)CCCCCCCCCC)c1.[Br-].[Br-].[Br-] | Active | Active | Active | Active | Active | Active
8 | 63 | 4 | 16 | 0.6 | 8 | 4 | 4 | CCCCCCCCCCCCCC[N+](C)(C)Cc1cc(C[n+]2ccccc2)cc(C[N+](C)(C)CCCCCCCCCCCCCC)c1.[Br-].[Br-].[Br-] | Active | Active | Active | Active | Active | Active
9 | 16 | 2 | 4 | 2.5 | 2 | 2 | 2 | CCCCCCCCCCCC[N+](C)(C)Cc1cc(C[N+](C)(C)C)cc(C[N+](C)(C)CCCCCCCCCCCC)c1.[Br-].[Br-].[Br-] | Active | Active | Active | Active | Active | Active
10 | 8 | 2 | 4 | 2.4 | 2 | 1 | 2 | CCCCCCCCCCCC[N+](C)(C)Cc1cc(C[n+]2ccccc2)cc(C[N+](C)(C)CCCCCCCCCCCC)c1.[Br-].[Br-].[Br-] | Active | Active | Active | Active | Active | Active
11 | 6.4 (≈ 2.99 µg/mL) |  |  |  |  |  |  | NC[C@H]1O[C@H](O[C@H]2[C@H](O)[C@@H](O[C@H]3O[C@H](CO)[C@@H](O)[C@H](N)[C@H]3O)[C@H](N)C[C@@H]2N)[C@H](N)C[C@@H]1O [TOBRAMYCIN] |  |  |  |  |  | 

Reference: ChEMBL document CHEMBL3585328, “Colloidal and antibacterial properties of novel triple-headed, double-tailed amphiphiles: exploring structure-activity relationships and synergistic mixtures” (Bioorg Med Chem, 2015)
